In the NIST ThermoML archive (doi:10.1016/j.fluid.2010.01.019):

Details: Liquid, Vibrating tube method

CCCCC(=O)OCC(COCC(COC(=O)CCCC)(COC(=O)CCCC)COC(=O)CCCC)(COC(=O)CCCC)COC(=O)CCCC
mass density [kg/m3]
Details | 100 kPa | 1000 kPa | 5000 kPa | 10000 kPa | 20000 kPa | 30000 kPa | 40000 kPa | 50000 kPa | 60000 kPa | 70000 kPa
283.15 K | 1045 | 1045.5 | 1047.7 | 1050.4 | 1055.8 | 1060.9 | 1065.8 | 1070.5 | 1075 | 1079.3
298.15 K | 1033.7 | 1034.2 | 1036.7 | 1039.7 | 1045.4 | 1050.7 | 1055.9 | 1060.8 | 1065.5 | 1070
323.15 K | 1014.6 | 1015.2 | 1018 | 1021.3 | 1027.6 | 1033.5 | 1039 | 1044.4 | 1049.5 | 1054.3
333.15 K | 1007 | 1007.7 | 1010.6 | 1014 | 1020.6 | 1026.7 | 1032.4 | 1037.9 | 1043.2 | 1048.2
348.15 K | 995.5 | 996.3 | 999.4 | 1003.1 | 1010 | 1016.4 | 1022.5 | 1028.3 | 1033.8 | 1039.1
373.15 K | 975.7 | 977.3 | 980.8 | 984.9 | 992.5 | 999.6 | 1006.2 | 1012.5 | 1018.4 | 1024
398.15 K | 957 | 957.8 | 961.4 | 965.9 | 974.4 | 982.1 | 989.3 | 996.1 | 1002.4 | 1008.4

CCCCCCC(=O)OCC(COCC(COC(=O)CCCCCC)(COC(=O)CCCCCC)COC(=O)CCCCCC)(COC(=O)CCCCCC)COC(=O)CCCCCC [dipentaerythritol hexaheptanoate]
mass density [kg/m3]
Details | 100 kPa | 1000 kPa | 5000 kPa | 10000 kPa | 20000 kPa | 30000 kPa | 40000 kPa | 50000 kPa | 60000 kPa | 70000 kPa
283.15 K | 1000.3 | 1000.9 | 1003.2 | 1005.9 | 1011.2 | 1016.1 | 1020.8 | 1025.4 | 1029.9 | 1034.2
298.15 K | 989.7 | 990.3 | 992.8 | 995.7 | 1001.3 | 1006.4 | 1011.3 | 1016.1 | 1020.7 | 1025.2
323.15 K | 971.7 | 972.2 | 974.9 | 978.2 | 984.4 | 990.1 | 995.5 | 1000.6 | 1005.6 | 1010.3
333.15 K | 964.4 | 965.1 | 967.9 | 971.3 | 977.8 | 983.7 | 989.3 | 994.6 | 999.7 | 1004.6
348.15 K | 953.7 | 954.4 | 957.4 | 961 | 967.8 | 974.1 | 980 | 985.6 | 990.9 | 996
373.15 K | 935 | 936.6 | 939.9 | 943.9 | 951.4 | 958.3 | 964.7 | 970.8 | 976.5 | 981.9
398.15 K | 917.4 | 918.2 | 921.7 | 926.1 | 934.4 | 941.9 | 948.9 | 955.5 | 961.6 | 967.3
